Residual activity data for three compounds are collected here from the kinase profiling compilation of Christmann-Franck et al. (2016).

SMILES strings stand for the structures.

One test concerns the target MST4 (human) (UniProt Q9P289). Put plainly: radiometric filter-binding kinase assay, Kinase HotSpot. To be noted: compound 0.5 µM; ATP 10 µM.
In the case of `O=C1NC(=O)c2c1c1c3ccccc3n3c1c1c2c2ccccc2n1C1CCC3O1`, the residual activity is 20.5%.
Still for that read-out and setting: for `CC(C)N(CCC(=O)c1ccc2ccccc2c1)Cc1ccccc1` the value was 108%; for `Cc1ccc(NC2=CC(=O)c3sc(C)nc3C2=O)cc1`, 86.6%.

A further test has as its target CSNK1G2 (human) (UniProt P78368). Described as above. As to conditions: compound 0.5 µM; ATP 10 µM.
As for `O=C1NC(=O)c2c1c1c3ccccc3n3c1c1c2c2ccccc2n1C1CCC3O1`, the residual activity turned out to be 81.8%.
On to `CC(C)N(CCC(=O)c1ccc2ccccc2c1)Cc1ccccc1`, for which the residual activity came out at 104%.
For `Cc1ccc(NC2=CC(=O)c3sc(C)nc3C2=O)cc1`, the residual activity is 99.9%.

A further test deals with DYRK1A (human) (UniProt Q13627). The test is described as above. To be noted: compound 0.5 µM; ATP 10 µM.
On to `O=C1NC(=O)c2c1c1c3ccccc3n3c1c1c2c2ccccc2n1C1CCC3O1`, for which the residual activity was determined as 8.74%.
On to `CC(C)N(CCC(=O)c1ccc2ccccc2c1)Cc1ccccc1`, for which the residual activity worked out at 105%.
Same read-out and setting: for `Cc1ccc(NC2=CC(=O)c3sc(C)nc3C2=O)cc1` the value was 103%.

For a further test, the target named is PLK2 (human) (UniProt Q9NYY3). The description is as above. To be noted: compound 0.5 µM; ATP 10 µM.
In the case of `O=C1NC(=O)c2c1c1c3ccccc3n3c1c1c2c2ccccc2n1C1CCC3O1`, the residual activity amounted to 62.4%.
Consider `CC(C)N(CCC(=O)c1ccc2ccccc2c1)Cc1ccccc1`, for which the residual activity stood at 97%.
For the compound `Cc1ccc(NC2=CC(=O)c3sc(C)nc3C2=O)cc1`, the residual activity came to 95.1%.

The next test addresses LTK (human) (UniProt P29376). Described as above. To be noted: compound 0.5 µM; ATP 10 µM.
Turning to `O=C1NC(=O)c2c1c1c3ccccc3n3c1c1c2c2ccccc2n1C1CCC3O1`, the residual activity was found to be 21.8%.
Same read-out and setting: for `CC(C)N(CCC(=O)c1ccc2ccccc2c1)Cc1ccccc1` the value was 103%; for `Cc1ccc(NC2=CC(=O)c3sc(C)nc3C2=O)cc1`, 88.8%.

A further test concerns the target CSNK1G3 (human) (UniProt Q9Y6M4). The description is as above. To be noted: compound 0.5 µM; ATP 10 µM.
`O=C1NC(=O)c2c1c1c3ccccc3n3c1c1c2c2ccccc2n1C1CCC3O1`: the residual activity came out at 108%.
The same measure, in the same setting: as for `CC(C)N(CCC(=O)c1ccc2ccccc2c1)Cc1ccccc1`, the figure is 99%; as for `Cc1ccc(NC2=CC(=O)c3sc(C)nc3C2=O)cc1`, 90.1%.

In another test the target is ABL1 (human) (UniProt P00519). The description is as above. To be noted: compound 0.5 µM; ATP 10 µM.
On to `O=C1NC(=O)c2c1c1c3ccccc3n3c1c1c2c2ccccc2n1C1CCC3O1`, for which the residual activity was 72.7%.
Still for that read-out and setting: as for `CC(C)N(CCC(=O)c1ccc2ccccc2c1)Cc1ccccc1`, the figure is 101%; as for `Cc1ccc(NC2=CC(=O)c3sc(C)nc3C2=O)cc1`, 90.8%.

The next test deals with LRRK2 (human) (UniProt Q5S007). The description is as above. To be noted: compound 0.5 µM; ATP 10 µM.
In the case of `O=C1NC(=O)c2c1c1c3ccccc3n3c1c1c2c2ccccc2n1C1CCC3O1`, the residual activity stood at 1.91%.
On the same count and under the same terms, as for `CC(C)N(CCC(=O)c1ccc2ccccc2c1)Cc1ccccc1`, the figure is 98.2%; as for `Cc1ccc(NC2=CC(=O)c3sc(C)nc3C2=O)cc1`, 102%.

A further test deals with RIPK2 (human) (UniProt O43353). The test is described as above. As to conditions: compound 0.5 µM; ATP 10 µM.
For the compound `O=C1NC(=O)c2c1c1c3ccccc3n3c1c1c2c2ccccc2n1C1CCC3O1`, the residual activity was found to be 79.7%.
With `CC(C)N(CCC(=O)c1ccc2ccccc2c1)Cc1ccccc1`, the residual activity is 78.3%.
The same measure, in the same setting: for `Cc1ccc(NC2=CC(=O)c3sc(C)nc3C2=O)cc1` the value was 95.2%.

A further test has as its target RPS6KB1 (human) (UniProt P23443). Described as above. To be noted: compound 0.5 µM; ATP 10 µM.
`O=C1NC(=O)c2c1c1c3ccccc3n3c1c1c2c2ccccc2n1C1CCC3O1`: the residual activity was 2.38%.
As to `CC(C)N(CCC(=O)c1ccc2ccccc2c1)Cc1ccccc1`, the residual activity amounted to 97.2%.
`Cc1ccc(NC2=CC(=O)c3sc(C)nc3C2=O)cc1`: the residual activity is 97.2%.

In a further test the target is DYRK4 (human) (UniProt Q9NR20). Described as above. To be noted: compound 0.5 µM; ATP 10 µM.
In the case of `O=C1NC(=O)c2c1c1c3ccccc3n3c1c1c2c2ccccc2n1C1CCC3O1`, the residual activity amounted to 87.8%.
On the same count and under the same terms, for `CC(C)N(CCC(=O)c1ccc2ccccc2c1)Cc1ccccc1` the value was 88.5%; for `Cc1ccc(NC2=CC(=O)c3sc(C)nc3C2=O)cc1`, 97.9%.

The target in a further test is FES (human) (UniProt P07332). Described as above. As to conditions: compound 0.5 µM; ATP 10 µM.
On to `O=C1NC(=O)c2c1c1c3ccccc3n3c1c1c2c2ccccc2n1C1CCC3O1`, for which the residual activity amounted to 42.1%.
As to `CC(C)N(CCC(=O)c1ccc2ccccc2c1)Cc1ccccc1`, the residual activity came out at 92.7%.
As for `Cc1ccc(NC2=CC(=O)c3sc(C)nc3C2=O)cc1`, the residual activity came to 101%.

The next test deals with TSSK1B (human) (UniProt Q9BXA7). The test is described as above. As to conditions: compound 0.5 µM; ATP 10 µM.
Regarding `O=C1NC(=O)c2c1c1c3ccccc3n3c1c1c2c2ccccc2n1C1CCC3O1`, the residual activity stood at 17.7%.
The same measure, in the same setting: as for `CC(C)N(CCC(=O)c1ccc2ccccc2c1)Cc1ccccc1`, the figure is 100%.
The same measure, in the same setting: for `Cc1ccc(NC2=CC(=O)c3sc(C)nc3C2=O)cc1` the value was 115%.

A further test concerns the target EPHA1 (human) (UniProt P21709). The description is as above. As to conditions: compound 0.5 µM; ATP 10 µM.
For `O=C1NC(=O)c2c1c1c3ccccc3n3c1c1c2c2ccccc2n1C1CCC3O1`, the residual activity came to 90.1%.
Same read-out and setting: as for `CC(C)N(CCC(=O)c1ccc2ccccc2c1)Cc1ccccc1`, the figure is 92.4%; as for `Cc1ccc(NC2=CC(=O)c3sc(C)nc3C2=O)cc1`, 86.1%.

Another test deals with BTK (human) (UniProt Q06187). The test is described as above. As to conditions: compound 0.5 µM; ATP 10 µM.
On to `O=C1NC(=O)c2c1c1c3ccccc3n3c1c1c2c2ccccc2n1C1CCC3O1`, for which the residual activity was 43.3%.
Consider `CC(C)N(CCC(=O)c1ccc2ccccc2c1)Cc1ccccc1`, for which the residual activity came to 87.5%.
As to `Cc1ccc(NC2=CC(=O)c3sc(C)nc3C2=O)cc1`, the residual activity was 99.2%.

The target in another test is TAOK3 (human) (UniProt Q9H2K8). The description is as above. As to conditions: compound 0.5 µM; ATP 10 µM.
For `O=C1NC(=O)c2c1c1c3ccccc3n3c1c1c2c2ccccc2n1C1CCC3O1`, the residual activity came to 24.5%.
Still for that read-out and setting: as for `CC(C)N(CCC(=O)c1ccc2ccccc2c1)Cc1ccccc1`, the figure is 87.8%.
On the same count and under the same terms, for `Cc1ccc(NC2=CC(=O)c3sc(C)nc3C2=O)cc1` the value was 98.9%.

In another test the target is FLT1 (human) (UniProt P17948). The test is described as above. As to conditions: compound 0.5 µM; ATP 10 µM.
Chain of FLT1 (human) (P17948 whole entry, looked up): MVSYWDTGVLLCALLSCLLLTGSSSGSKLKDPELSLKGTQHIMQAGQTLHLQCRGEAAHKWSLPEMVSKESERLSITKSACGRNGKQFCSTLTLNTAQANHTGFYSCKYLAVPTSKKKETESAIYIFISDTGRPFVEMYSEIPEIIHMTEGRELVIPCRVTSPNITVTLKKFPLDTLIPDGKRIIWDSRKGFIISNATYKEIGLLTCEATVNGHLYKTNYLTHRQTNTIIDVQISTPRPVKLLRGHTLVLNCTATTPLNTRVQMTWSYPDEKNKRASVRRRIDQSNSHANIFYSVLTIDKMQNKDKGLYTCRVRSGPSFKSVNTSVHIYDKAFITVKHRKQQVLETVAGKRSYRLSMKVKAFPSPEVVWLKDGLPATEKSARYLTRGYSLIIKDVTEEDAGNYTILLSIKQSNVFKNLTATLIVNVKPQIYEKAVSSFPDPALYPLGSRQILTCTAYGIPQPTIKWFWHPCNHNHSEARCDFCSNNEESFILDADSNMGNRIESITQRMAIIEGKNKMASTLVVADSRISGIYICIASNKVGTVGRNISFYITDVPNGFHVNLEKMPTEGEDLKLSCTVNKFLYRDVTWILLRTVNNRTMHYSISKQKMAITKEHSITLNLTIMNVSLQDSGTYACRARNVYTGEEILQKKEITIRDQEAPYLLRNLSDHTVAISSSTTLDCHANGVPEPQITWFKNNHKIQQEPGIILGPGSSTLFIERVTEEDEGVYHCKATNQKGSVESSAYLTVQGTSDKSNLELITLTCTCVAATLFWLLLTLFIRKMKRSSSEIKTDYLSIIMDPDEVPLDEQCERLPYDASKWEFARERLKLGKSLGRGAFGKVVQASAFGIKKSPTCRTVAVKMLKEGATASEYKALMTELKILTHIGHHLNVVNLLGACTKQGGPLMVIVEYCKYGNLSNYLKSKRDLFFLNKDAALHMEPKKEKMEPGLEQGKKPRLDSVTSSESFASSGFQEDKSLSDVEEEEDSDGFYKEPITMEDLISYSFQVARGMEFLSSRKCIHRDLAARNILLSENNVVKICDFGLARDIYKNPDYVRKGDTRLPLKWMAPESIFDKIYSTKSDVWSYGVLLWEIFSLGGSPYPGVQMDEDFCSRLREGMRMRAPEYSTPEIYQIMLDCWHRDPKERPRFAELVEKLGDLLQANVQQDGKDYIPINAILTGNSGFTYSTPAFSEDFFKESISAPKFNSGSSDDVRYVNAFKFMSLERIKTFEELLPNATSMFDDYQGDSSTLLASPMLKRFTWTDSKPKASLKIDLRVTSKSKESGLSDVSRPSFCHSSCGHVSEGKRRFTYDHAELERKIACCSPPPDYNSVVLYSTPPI
Consider `O=C1NC(=O)c2c1c1c3ccccc3n3c1c1c2c2ccccc2n1C1CCC3O1`, for which the residual activity was found to be 13.3%.
For `CC(C)N(CCC(=O)c1ccc2ccccc2c1)Cc1ccccc1`, the residual activity came out at 86%.
As for `Cc1ccc(NC2=CC(=O)c3sc(C)nc3C2=O)cc1`, the residual activity came out at 89.8%.

In a further test the target is BLK (human) (UniProt P51451). The test is described as above. As to conditions: compound 0.5 µM; ATP 10 µM.
Chain of BLK (human) (P51451 whole entry, looked up): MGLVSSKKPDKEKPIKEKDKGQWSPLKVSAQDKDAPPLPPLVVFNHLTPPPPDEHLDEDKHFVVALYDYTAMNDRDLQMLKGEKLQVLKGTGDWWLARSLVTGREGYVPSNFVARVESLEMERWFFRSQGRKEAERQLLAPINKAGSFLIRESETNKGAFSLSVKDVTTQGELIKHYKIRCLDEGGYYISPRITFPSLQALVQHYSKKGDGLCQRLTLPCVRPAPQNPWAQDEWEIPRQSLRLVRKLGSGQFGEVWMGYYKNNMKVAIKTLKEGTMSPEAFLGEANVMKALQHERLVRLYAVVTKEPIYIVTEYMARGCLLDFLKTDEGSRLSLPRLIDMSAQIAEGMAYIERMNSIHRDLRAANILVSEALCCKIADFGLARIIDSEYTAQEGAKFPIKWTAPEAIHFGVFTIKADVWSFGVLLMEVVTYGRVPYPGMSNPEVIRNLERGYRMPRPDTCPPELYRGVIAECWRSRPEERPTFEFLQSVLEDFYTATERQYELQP
Take `O=C1NC(=O)c2c1c1c3ccccc3n3c1c1c2c2ccccc2n1C1CCC3O1`: the residual activity was found to be 37.7%.
Same read-out and setting: for `CC(C)N(CCC(=O)c1ccc2ccccc2c1)Cc1ccccc1` the value was 106%.
Still for that read-out and setting: for `Cc1ccc(NC2=CC(=O)c3sc(C)nc3C2=O)cc1` the value was 95.4%.

For the next test, the target named is CDK3 CCNE1 (human) (UniProt Q00526+P24864). The description is as above. To be noted: compound 0.5 µM; ATP 10 µM.
Chain of CDK3 CCNE1 (human) (P24864 whole entry, looked up): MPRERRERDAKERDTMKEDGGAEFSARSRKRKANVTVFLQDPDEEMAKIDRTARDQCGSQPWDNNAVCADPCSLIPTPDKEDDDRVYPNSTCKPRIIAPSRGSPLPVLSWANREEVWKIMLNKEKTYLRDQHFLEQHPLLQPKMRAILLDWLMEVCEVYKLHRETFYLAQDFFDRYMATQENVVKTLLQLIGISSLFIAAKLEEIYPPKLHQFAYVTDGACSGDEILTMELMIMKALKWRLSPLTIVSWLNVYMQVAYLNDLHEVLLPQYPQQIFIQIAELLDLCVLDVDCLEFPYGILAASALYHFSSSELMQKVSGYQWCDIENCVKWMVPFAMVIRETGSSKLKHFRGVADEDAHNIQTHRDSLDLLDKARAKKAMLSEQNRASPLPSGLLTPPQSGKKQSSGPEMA
Chain of CDK3 CCNE1 (human) (Q00526 whole entry, looked up): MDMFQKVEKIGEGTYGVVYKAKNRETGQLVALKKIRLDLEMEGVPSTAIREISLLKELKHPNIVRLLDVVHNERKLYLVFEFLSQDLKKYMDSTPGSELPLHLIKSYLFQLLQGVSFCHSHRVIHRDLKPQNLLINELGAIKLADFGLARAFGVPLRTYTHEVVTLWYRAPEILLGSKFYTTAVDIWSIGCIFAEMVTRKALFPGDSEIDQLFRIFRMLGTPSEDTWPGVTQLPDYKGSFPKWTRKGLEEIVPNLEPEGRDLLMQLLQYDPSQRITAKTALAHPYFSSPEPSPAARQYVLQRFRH
With `O=C1NC(=O)c2c1c1c3ccccc3n3c1c1c2c2ccccc2n1C1CCC3O1`, the residual activity turned out to be 71.5%.
For the compound `CC(C)N(CCC(=O)c1ccc2ccccc2c1)Cc1ccccc1`, the residual activity was 91.4%.
In the case of `Cc1ccc(NC2=CC(=O)c3sc(C)nc3C2=O)cc1`, the residual activity was found to be 88.5%.

For a further test, the target named is ROS1 (human) (UniProt P08922). The test is described as above. As to conditions: compound 0.5 µM; ATP 10 µM.
Chain of ROS1 (human) (P08922 whole entry, looked up): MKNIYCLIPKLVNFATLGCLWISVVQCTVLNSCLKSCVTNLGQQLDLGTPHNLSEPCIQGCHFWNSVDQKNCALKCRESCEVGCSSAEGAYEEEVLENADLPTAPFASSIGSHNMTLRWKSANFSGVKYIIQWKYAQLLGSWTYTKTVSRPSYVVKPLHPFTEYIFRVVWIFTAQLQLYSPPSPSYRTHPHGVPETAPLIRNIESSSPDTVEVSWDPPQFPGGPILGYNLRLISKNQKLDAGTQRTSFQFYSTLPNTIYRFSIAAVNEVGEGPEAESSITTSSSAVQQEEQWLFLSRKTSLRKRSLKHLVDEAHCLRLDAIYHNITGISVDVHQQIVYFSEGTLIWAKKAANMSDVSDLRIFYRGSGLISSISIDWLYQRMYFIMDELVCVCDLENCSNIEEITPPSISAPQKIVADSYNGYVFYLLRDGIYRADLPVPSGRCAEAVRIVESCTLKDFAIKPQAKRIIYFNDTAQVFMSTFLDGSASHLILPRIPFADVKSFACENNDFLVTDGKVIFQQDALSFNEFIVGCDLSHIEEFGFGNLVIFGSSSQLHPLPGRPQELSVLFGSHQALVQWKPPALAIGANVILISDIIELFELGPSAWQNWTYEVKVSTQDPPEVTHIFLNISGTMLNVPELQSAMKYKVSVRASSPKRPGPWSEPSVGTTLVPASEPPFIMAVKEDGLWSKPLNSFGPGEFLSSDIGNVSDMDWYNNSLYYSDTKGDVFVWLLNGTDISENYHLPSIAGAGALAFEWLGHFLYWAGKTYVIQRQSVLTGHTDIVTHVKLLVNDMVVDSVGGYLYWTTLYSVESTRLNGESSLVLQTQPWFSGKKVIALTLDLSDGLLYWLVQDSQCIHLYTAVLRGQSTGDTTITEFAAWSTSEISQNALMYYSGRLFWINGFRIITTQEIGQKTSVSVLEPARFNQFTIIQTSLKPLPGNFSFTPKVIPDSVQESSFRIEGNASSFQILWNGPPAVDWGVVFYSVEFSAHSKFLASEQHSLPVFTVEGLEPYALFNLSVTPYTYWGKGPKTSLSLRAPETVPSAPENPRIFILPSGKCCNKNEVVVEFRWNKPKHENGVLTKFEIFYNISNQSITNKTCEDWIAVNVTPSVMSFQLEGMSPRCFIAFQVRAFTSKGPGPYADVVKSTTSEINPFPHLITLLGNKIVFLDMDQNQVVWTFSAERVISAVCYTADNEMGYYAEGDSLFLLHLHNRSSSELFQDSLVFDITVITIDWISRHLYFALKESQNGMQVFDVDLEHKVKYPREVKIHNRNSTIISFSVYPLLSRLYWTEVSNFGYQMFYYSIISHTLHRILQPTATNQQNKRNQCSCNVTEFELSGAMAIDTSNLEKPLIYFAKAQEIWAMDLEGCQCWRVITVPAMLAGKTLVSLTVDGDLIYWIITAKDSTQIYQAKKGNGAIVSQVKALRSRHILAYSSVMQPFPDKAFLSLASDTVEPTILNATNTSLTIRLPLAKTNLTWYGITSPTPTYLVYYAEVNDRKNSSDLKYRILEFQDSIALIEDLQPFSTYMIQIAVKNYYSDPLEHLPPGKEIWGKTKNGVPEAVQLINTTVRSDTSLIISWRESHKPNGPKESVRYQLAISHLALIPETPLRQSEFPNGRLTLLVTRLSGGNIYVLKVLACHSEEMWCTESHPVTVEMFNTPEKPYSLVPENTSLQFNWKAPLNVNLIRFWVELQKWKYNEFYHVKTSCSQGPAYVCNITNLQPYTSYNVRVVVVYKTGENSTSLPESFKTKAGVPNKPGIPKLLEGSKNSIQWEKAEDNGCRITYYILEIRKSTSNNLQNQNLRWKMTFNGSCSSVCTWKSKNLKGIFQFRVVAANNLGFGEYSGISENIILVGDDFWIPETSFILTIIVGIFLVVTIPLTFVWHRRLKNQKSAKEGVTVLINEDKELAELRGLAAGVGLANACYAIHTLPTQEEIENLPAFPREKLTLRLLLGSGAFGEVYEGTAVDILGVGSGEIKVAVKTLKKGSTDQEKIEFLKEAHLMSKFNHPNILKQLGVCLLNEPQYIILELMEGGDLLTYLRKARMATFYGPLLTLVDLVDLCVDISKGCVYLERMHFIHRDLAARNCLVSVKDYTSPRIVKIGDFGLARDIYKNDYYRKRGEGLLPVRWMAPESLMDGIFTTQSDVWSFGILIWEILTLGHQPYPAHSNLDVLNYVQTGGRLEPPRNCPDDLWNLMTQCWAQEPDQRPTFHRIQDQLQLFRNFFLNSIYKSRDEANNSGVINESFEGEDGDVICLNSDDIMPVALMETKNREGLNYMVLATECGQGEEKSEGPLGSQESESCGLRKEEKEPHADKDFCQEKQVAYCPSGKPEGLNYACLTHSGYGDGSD
As for `O=C1NC(=O)c2c1c1c3ccccc3n3c1c1c2c2ccccc2n1C1CCC3O1`, the residual activity came out at 1.6%.
Take `CC(C)N(CCC(=O)c1ccc2ccccc2c1)Cc1ccccc1`: the residual activity is 113%.
As to `Cc1ccc(NC2=CC(=O)c3sc(C)nc3C2=O)cc1`, the residual activity stood at 107%.

The target of a further test is PAK6 (human) (UniProt Q9NQU5). The description is as above. As to conditions: compound 0.5 µM; ATP 10 µM.
With `O=C1NC(=O)c2c1c1c3ccccc3n3c1c1c2c2ccccc2n1C1CCC3O1`, the residual activity worked out at 85.4%.
Turning to `CC(C)N(CCC(=O)c1ccc2ccccc2c1)Cc1ccccc1`, the residual activity came to 116%.
In the case of `Cc1ccc(NC2=CC(=O)c3sc(C)nc3C2=O)cc1`, the residual activity was found to be 110%.

By residual activity is commonly meant the signal under treatment as a percentage of the control signal.
